Experimental data taken from ChEMBL document CHEMBL4130634, “Discovery of Reversible DNA Methyltransferase and Lysine Methyltransferase G9a Inhibitors with Antitumoral in Vivo Efficacy” (J Med Chem, 2018).
Blank lines part the entries; values can stand above or below the compound they belong to.

Tests used:
[1] = biological target: T1, DNA (cytosine-5)-methyltransferase 1 (Homo sapiens, UniProt P26358); assay: Inhibition of human DNMT1 using polydeoxyinosine polydeoxycytosine DNA as substrate after 15 mins in presence of SAM by TR-FRET assay
[2] = AUC (0 to 24 hrs) in RARG2-/-gammac-/- Balb/c mouse at 5 mg/kg, ip administered as single dose by LC-MS/MS analysis; format: ADME, organism-based; parameters: time < 24 hr, dose 5 mg/kg, route intraperitoneal; conditions: in vivo
[3] = Clearance in RARG2-/-gammac-/- Balb/c mouse at […], iv administered as single dose by LC-MS/MS analysis; format: ADME, organism-based; conditions: in vivo
[4] = Metabolic stability in human liver microsomes assessed as parent compound remaining at 1 uM preincubated for 10 mins followed by NADP addition after 20 mins by LC-MS/MS analysis; format: ADME, microsome; conditions: microsomes, 20 min, 1 µM
[5] = Half life in human liver microsomes at 1 uM preincubated for 10 mins followed by NADP addition after 20 mins by LC-MS/MS analysis; format: ADME, microsome; conditions: microsomes, 20 min, 1 µM
[6] = Volume of distribution at steady state in RARG2-/-gammac-/- Balb/c mouse at […], iv administered as single dose by LC-MS/MS analysis; format: ADME, organism-based; conditions: in vivo, read-out: Vdss
[7] = AUC (0 to 24 hrs) in RARG2-/-gammac-/- Balb/c mouse at […], iv administered as single dose by LC-MS/MS analysis; format: ADME, organism-based; parameters: dose 1.9 mg/kg, time < 24 hr, route intravenous; conditions: in vivo
[8] = Half life in RARG2-/-gammac-/- Balb/c mouse at […], iv administered as single dose by LC-MS/MS analysis; format: ADME, organism-based; conditions: in vivo
[9] = Growth inhibition of human LAL-CUN-2 cells after 48 hrs by MTS assay; format: functional
[10] = Metabolic stability in mouse liver microsomes assessed as parent compound remaining at 1 uM preincubated for 10 mins followed by NADP addition after 20 mins by LC-MS/MS analysis; format: ADME, microsome; conditions: read-out: Stability
[11] = Half life in mouse liver microsomes at 1 uM preincubated for 10 mins followed by NADP addition after 20 mins by LC-MS/MS analysis; format: ADME, microsome
[12] = biological target: T2, Histone-lysine N-methyltransferase EHMT2 (Homo sapiens, UniProt Q96KQ7); assay: Non-competitive inhibition of human G9a using biotinylated-H3K9 peptide as substrate after 1 hr in presence of 2 to 640 uM SAM by TR-FRET assay
T2 sequence (Q96KQ7 whole entry): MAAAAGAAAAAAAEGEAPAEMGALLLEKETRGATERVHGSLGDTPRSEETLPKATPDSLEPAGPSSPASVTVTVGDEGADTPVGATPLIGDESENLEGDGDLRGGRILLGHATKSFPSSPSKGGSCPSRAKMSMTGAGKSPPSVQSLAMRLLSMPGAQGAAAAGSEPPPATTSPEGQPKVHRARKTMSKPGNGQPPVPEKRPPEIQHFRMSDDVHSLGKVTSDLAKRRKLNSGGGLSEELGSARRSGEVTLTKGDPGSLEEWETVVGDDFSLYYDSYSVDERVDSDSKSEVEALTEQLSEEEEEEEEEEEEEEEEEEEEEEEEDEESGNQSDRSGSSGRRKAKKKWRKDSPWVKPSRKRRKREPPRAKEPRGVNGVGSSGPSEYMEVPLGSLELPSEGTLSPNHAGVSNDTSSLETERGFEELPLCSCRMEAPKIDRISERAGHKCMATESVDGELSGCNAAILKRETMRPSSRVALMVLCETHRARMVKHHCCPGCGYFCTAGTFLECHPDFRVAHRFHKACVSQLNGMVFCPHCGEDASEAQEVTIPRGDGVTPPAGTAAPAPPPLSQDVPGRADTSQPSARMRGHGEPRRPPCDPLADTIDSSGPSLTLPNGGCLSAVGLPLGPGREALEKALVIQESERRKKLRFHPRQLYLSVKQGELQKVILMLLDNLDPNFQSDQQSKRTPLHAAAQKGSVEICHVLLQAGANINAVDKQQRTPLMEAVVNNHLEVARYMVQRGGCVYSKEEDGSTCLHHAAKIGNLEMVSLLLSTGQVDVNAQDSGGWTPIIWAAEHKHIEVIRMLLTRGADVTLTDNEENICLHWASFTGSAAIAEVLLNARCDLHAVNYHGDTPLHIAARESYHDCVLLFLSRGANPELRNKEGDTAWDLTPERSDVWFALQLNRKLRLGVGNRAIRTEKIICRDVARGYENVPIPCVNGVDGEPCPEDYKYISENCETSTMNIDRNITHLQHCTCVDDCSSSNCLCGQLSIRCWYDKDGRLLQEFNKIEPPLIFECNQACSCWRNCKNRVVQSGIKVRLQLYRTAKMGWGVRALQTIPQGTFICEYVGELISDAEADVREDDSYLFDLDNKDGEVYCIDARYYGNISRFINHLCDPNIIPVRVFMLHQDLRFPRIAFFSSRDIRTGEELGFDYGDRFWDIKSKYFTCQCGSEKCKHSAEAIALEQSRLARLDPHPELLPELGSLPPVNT

[13] = biological target: T2, Histone-lysine N-methyltransferase EHMT2; assay: Inhibition of human G9a using biotinylated-H3K9 peptide as substrate after 1 hr in presence of SAM by TR-FRET assay
[14] = biological target: T1, DNA (cytosine-5)-methyltransferase 1; assay: Competitive inhibition of human DNMT1 using 1 to 100 ug/ml polydeoxyinosine polydeoxycytosine DNA as substrate after 15 mins in presence of SAM by TR-FRET assay
[15] = biological target: T2, Histone-lysine N-methyltransferase EHMT2; assay: Competitive inhibition of human G9a using 40 to 2560 nM biotinylated-H3K9 peptide as substrate after 1 hr in presence of SAM by TR-FRET assay
[16] = biological target: T1, DNA (cytosine-5)-methyltransferase 1; assay: Non-competitive inhibition of human DNMT1 using polydeoxyinosine polydeoxycytosine DNA as substrate after 15 mins in presence of 1 to 20 uM SAM by TR-FRET assay
THLE-2 = assay: Growth inhibition of human THLE2 cells after 72 hrs by MTS assay; format: cell-based; conditions: thle-2, 72 h
[17] = Growth inhibition of human CEMO1 cells after 48 hrs by MTS assay; format: functional
OCI-Ly10 = assay: Growth inhibition of human OCI-LY10 cells at 1 uM after 48 hrs by MTS assay relative to control; format: functional; conditions: OCI-Ly10, 48 h, read-out: GI
OCI-Ly3 = assay: Growth inhibition of human OCI-LY3 cells at 1 uM after 48 hrs by MTS assay relative to control; format: functional; conditions: OCI-Ly3, 48 h, read-out: GI
MV4-11 = assay: Growth inhibition of human MV4-11 cells after 48 hrs by MTS assay; format: functional; conditions: MV4-11, 48 h
[18] = biological target: T3, Histone-lysine N-methyltransferase EHMT1 (Homo sapiens, UniProt Q9H9B1); assay: Inhibition of recombinant human GLP using histone H3 peptide as substrate after 120 mins in presence of [3H]SAM by radiometric assay
T3 sequence (Q9H9B1 whole entry): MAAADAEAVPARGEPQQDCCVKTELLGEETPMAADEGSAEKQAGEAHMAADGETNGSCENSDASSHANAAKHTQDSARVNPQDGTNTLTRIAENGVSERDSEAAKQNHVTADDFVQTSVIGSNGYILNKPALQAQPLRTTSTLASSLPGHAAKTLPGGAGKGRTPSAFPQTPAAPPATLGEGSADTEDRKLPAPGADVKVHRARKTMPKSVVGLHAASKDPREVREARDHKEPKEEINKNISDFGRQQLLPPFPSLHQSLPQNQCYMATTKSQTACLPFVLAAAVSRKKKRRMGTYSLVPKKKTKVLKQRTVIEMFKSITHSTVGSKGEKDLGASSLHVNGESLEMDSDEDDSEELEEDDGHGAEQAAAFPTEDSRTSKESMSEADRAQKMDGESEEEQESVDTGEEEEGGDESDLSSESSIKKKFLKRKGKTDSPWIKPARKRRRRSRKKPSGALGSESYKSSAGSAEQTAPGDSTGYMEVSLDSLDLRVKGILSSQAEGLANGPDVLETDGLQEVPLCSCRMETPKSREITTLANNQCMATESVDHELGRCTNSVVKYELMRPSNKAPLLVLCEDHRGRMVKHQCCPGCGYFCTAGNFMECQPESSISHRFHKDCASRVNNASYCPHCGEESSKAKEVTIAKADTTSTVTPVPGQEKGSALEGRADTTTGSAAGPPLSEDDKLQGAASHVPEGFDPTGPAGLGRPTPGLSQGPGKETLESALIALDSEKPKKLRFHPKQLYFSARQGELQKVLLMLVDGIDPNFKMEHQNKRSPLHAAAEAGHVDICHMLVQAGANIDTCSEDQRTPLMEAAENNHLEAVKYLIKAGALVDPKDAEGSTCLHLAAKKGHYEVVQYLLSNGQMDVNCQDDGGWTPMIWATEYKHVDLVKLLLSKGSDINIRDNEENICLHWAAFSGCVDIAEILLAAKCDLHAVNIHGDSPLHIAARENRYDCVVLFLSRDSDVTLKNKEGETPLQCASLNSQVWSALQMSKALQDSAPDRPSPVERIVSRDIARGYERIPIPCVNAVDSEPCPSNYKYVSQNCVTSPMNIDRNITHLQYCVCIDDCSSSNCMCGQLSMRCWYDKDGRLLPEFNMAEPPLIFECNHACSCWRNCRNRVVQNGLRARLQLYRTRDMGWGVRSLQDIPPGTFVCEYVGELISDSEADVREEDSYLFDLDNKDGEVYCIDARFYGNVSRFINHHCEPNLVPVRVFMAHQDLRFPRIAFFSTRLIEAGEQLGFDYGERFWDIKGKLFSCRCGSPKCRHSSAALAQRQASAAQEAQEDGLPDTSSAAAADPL

T1 sequence (P26358 whole entry): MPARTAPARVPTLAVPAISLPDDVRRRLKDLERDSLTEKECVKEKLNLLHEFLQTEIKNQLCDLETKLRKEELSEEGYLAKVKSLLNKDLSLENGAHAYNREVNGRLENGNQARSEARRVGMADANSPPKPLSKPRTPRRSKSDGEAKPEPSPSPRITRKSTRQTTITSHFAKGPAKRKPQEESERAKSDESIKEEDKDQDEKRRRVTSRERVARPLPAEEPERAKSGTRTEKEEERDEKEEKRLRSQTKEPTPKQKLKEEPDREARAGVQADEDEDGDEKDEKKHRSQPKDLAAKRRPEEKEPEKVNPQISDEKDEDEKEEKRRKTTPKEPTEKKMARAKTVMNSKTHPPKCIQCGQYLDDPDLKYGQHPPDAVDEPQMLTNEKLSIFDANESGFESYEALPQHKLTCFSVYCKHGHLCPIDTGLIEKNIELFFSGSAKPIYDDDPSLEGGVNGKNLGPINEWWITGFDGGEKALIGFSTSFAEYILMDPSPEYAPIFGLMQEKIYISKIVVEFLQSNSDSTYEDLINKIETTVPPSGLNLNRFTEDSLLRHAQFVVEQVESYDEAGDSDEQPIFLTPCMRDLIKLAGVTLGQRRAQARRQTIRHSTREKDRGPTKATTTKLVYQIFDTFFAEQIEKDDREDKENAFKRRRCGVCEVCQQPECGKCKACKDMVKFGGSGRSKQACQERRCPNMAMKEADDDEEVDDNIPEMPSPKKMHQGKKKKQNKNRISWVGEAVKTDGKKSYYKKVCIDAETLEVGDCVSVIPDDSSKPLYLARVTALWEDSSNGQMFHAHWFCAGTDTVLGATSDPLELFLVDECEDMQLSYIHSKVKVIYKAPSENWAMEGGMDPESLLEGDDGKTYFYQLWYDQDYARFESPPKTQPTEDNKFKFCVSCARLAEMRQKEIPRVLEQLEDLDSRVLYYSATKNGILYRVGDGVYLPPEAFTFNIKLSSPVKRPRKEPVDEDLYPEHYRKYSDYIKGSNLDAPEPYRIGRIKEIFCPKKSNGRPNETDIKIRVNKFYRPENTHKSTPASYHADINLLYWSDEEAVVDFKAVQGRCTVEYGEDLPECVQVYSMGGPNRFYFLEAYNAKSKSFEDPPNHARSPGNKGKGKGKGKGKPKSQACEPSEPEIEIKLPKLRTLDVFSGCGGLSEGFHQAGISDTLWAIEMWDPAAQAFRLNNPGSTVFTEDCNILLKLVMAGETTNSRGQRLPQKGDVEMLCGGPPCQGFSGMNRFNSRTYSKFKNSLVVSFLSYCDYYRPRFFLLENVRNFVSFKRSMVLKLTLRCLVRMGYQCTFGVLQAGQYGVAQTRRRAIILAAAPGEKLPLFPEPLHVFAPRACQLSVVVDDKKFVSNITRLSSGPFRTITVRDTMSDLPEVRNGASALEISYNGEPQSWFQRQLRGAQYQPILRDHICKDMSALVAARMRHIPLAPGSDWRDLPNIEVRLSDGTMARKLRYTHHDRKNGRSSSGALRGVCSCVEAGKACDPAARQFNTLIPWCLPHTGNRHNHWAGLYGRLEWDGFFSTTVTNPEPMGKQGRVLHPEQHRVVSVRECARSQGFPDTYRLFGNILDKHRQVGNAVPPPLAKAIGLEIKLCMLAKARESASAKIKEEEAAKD

IC50 [1]: > 50 µM
AUC(0-t) at 24 h [2]: 2310 nM·h
Compound: COc1cc2c(NC3CCN(C(C)C)CC3)nc(N3CCC(F)(F)CC3)nc2cc1OCCCN1CCCC1

clearance [3]: 5.9 L/h/kg
Stability [4]: 67.1%
t1/2 [5]: 1.6 h
Vd [6]: 88.5 L/kg
AUC(0-t) at 24 h [7]: 505 nM·h
half-life [8]: 13.2 h
remaining at 20 min, 1 µM [10]: 16.9%
half-life at 1 µM [11]: 0.2 h
Compound: CCc1ccc(-c2cc(NC3CCN(C)CC3)c3cc(OC)c(OCCCN4CCCC4)cc3n2)o1
GI50 [9]: 0.577 µM

Compound: COc1cc2c(NC3CCN(C(C)C)CC3)cc(C3CCCCC3)nc2cc1OCCCN1CCCC1
IC50 [12]: 0.0005 to 0.002 µM
IC50 [13]: 0.0007 µM
IC50 [14]: 1.4 to 10 µM
IC50 [15]: 0.0007 to 0.029 µM
IC50 [16]: 1.4 to 2.4 µM
IC50 [1]: 0.619 µM
LC50 (THLE-2): 83.8 µM
GI50 [17]: > 10 µM
inhibition of growth at 1 µM (OCI-Ly10): 0%
inhibition of growth at 1 µM (OCI-Ly3): 0%
GI50 (MV4-11): > 10 µM
IC50 [18]: 0.18 µM
